From PubChem BioAssay AID1259407 (Chemical Carcinogenesis Research Information System (CCRIS), 2018)
The source made the active and inactive calls. No rule for the calls is given here.

Tested on: CCRIS mutagenicity, Ames/micronucleus/aberration tests
Assay: CCRIS mutagenicity studies
[1] = Test System: AMES SALMONELLA TYPHIMURIUM, Strain/Indicator: TA98, Metabolic Activation: NONE, Method: STANDARD PLATE
[2] = Test System: AMES SALMONELLA TYPHIMURIUM, Strain/Indicator: TA98, Metabolic Activation: RAT, LIVER, S-9, AROCLOR 1254, Method: STANDARD PLATE
[3] = Test System: AMES SALMONELLA TYPHIMURIUM, Strain/Indicator: TA100, Metabolic Activation: NONE, Method: STANDARD PLATE
[4] = Test System: AMES SALMONELLA TYPHIMURIUM, Strain/Indicator: TA100, Metabolic Activation: RAT, LIVER, S-9, AROCLOR 1254, Method: STANDARD PLATE
[5] = Test System: AMES SALMONELLA TYPHIMURIUM, Strain/Indicator: TA1535, Metabolic Activation: NONE, Method: STANDARD PLATE
[6] = Test System: AMES SALMONELLA TYPHIMURIUM, Strain/Indicator: TA1535, Metabolic Activation: RAT, LIVER, S-9, AROCLOR 1254, Method: STANDARD PLATE
[7] = Test System: AMES SALMONELLA TYPHIMURIUM, Strain/Indicator: TA1537, Metabolic Activation: NONE, Method: STANDARD PLATE
[8] = Test System: AMES SALMONELLA TYPHIMURIUM, Strain/Indicator: TA1537, Metabolic Activation: RAT, LIVER, S-9, AROCLOR 1254, Method: STANDARD PLATE
[9] = Test System: AMES SALMONELLA TYPHIMURIUM, Strain/Indicator: TA1538, Metabolic Activation: NONE, Method: STANDARD PLATE
[10] = Test System: AMES SALMONELLA TYPHIMURIUM, Strain/Indicator: TA1538, Metabolic Activation: RAT, LIVER, S-9, AROCLOR 1254, Method: STANDARD PLATE

CC(C)CCCCCCOC(=O)CCCCC(=O)OCCCCCCC(C)C
mutagenic call (Test System: AMES SALMONELLA TYPHIMURIUM, Strain/Indicator: TA98, Metabolic Activation: HAMSTER, LIVER, S-9, AROCLOR 1254, Method: STANDARD PLATE): inactive; negative | mutagenic call [1]: inactive; negative | mutagenic call [2]: inactive; negative | mutagenic call (Test System: AMES SALMONELLA TYPHIMURIUM, Strain/Indicator: TA100, Metabolic Activation: HAMSTER, LIVER, S-9, AROCLOR 1254, Method: STANDARD PLATE): inactive; negative | mutagenic call [3]: inactive; negative | mutagenic call [4]: inactive; negative | mutagenic call (Test System: AMES SALMONELLA TYPHIMURIUM, Strain/Indicator: TA1535, Metabolic Activation: HAMSTER, LIVER, S-9, AROCLOR 1254, Method: STANDARD PLATE): inactive; negative | mutagenic call [5]: inactive; negative | mutagenic call [6]: inactive; negative | mutagenic call (Test System: AMES SALMONELLA TYPHIMURIUM, Strain/Indicator: TA1537, Metabolic Activation: HAMSTER, LIVER, S-9, AROCLOR 1254, Method: STANDARD PLATE): inactive; negative | mutagenic call [7]: inactive; negative | mutagenic call [8]: inactive; negative | mutagenic call (Test System: AMES SALMONELLA TYPHIMURIUM, Strain/Indicator: TA1538, Metabolic Activation: HAMSTER, LIVER, S-9, AROCLOR 1254, Method: STANDARD PLATE): inactive; negative | mutagenic call [9]: inactive; negative | mutagenic call [10]: inactive; negative | mutagenic call (Test System: MOUSE LYMPHOMA, Strain/Indicator: L5178Y (TK+/TK-), Metabolic Activation: NONE, Method: SUSPENSION/PLATE): inactive; negative | mutagenic call (Test System: MOUSE LYMPHOMA, Strain/Indicator: L5178Y (TK+/TK-), Metabolic Activation: RAT, LIVER, S-9, AROCLOR 1254, Method: SUSPENSION/PLATE): inactive; negative

O=[N+]([O-])c1ccc2snc(Cl)c2c1
mutagenic call [3]: active; positive

C=CC(=C)CCC=C(C)C
mutagenic call (End Point: E. coli, Strain/Indicator: WP2uvrA/pKM101, Metabolic Activation: None, Method: Preincubation): inactive; negative | mutagenic call (End Point: E. coli, Strain/Indicator: WP2uvrA/pKM101, Metabolic Activation: Rat, Liver, S-9, Aroclor 1254 (10%), Method: Preincubation): inactive; negative | mutagenic call (End Point: In vivo micronucleus, Test System: Micronucleated normochromatic erythrocytes, Species: Mouse, Strain/Sex: B6C3F1 / Female, Route: Oral): inactive; negative | mutagenic call (End Point: In vivo micronucleus, Test System: Micronucleated normochromatic erythrocytes, Species: Mouse, Strain/Sex: B6C3F1 / Male, Route: Oral): inactive; negative | mutagenic call (Test System: AMES SALMONELLA TYPHIMURIUM, Strain/Indicator: TA97A, Metabolic Activation: NONE, Method: STANDARD PLATE): inactive; negative | mutagenic call (Test System: AMES SALMONELLA TYPHIMURIUM, Strain/Indicator: TA97A, Metabolic Activation: RAT, LIVER, S-9, AROCLOR 1254, Method: STANDARD PLATE): inactive; negative | mutagenic call [1]: inactive; negative | mutagenic call [2]: inactive; negative | mutagenic call [3]: inactive; negative | mutagenic call [4]: inactive; negative | mutagenic call [5]: inactive; negative | mutagenic call [6]: inactive; negative | mutagenic call (Test System: Ames Salmonella typhimurium, Strain/Indicator: TA97, Metabolic Activation: Hamster, Liver, S-9, Aroclor 1254 (10%), Method: Preincubation): inactive; negative | mutagenic call (Test System: Ames Salmonella typhimurium, Strain/Indicator: TA97, Metabolic Activation: Hamster, Liver, S-9, Aroclor 1254 (30%), Method: Preincubation): inactive; negative | mutagenic call (Test System: Ames Salmonella typhimurium, Strain/Indicator: TA97, Metabolic Activation: None, Method: Preincubation): inactive; negative | mutagenic call (Test System: Ames Salmonella typhimurium, Strain/Indicator: TA97, Metabolic Activation: Rat, Liver, S-9, Aroclor 1254 (10%), Method: Preincubation): inactive; negative | mutagenic call (Test System: Ames Salmonella typhimurium, Strain/Indicator: TA97, Metabolic Activation: Rat, Liver, S-9, Aroclor 1254 (30%), Method: Preincubation): inactive; negative | mutagenic call (Test System: Ames Salmonella typhimurium, Strain/Indicator: TA98, Metabolic Activation: Hamster, Liver, S-9, Aroclor 1254 (10%), Method: Preincubation): inactive; negative | mutagenic call (Test System: Ames Salmonella typhimurium, Strain/Indicator: TA98, Metabolic Activation: Hamster, Liver, S-9, Aroclor 1254 (30%), Method: Preincubation): inactive; negative | mutagenic call (Test System: Ames Salmonella typhimurium, Strain/Indicator: TA98, Metabolic Activation: None, Method: Preincubation): inactive; negative | mutagenic call (Test System: Ames Salmonella typhimurium, Strain/Indicator: TA98, Metabolic Activation: Rat, Liver, S-9, Aroclor 1254 (10%), Method: Preincubation): inactive; negative | mutagenic call (Test System: Ames Salmonella typhimurium, Strain/Indicator: TA98, Metabolic Activation: Rat, Liver, S-9, Aroclor 1254 (30%), Method: Preincubation): inactive; negative | mutagenic call (Test System: Ames Salmonella typhimurium, Strain/Indicator: TA100, Metabolic Activation: Hamster, Liver, S-9, Aroclor 1254 (10%), Method: Preincubation): inactive; negative | mutagenic call (Test System: Ames Salmonella typhimurium, Strain/Indicator: TA100, Metabolic Activation: Hamster, Liver, S-9, Aroclor 1254 (30%), Method: Preincubation): inactive; negative | mutagenic call (Test System: Ames Salmonella typhimurium, Strain/Indicator: TA100, Metabolic Activation: None, Method: Preincubation): inactive; negative | mutagenic call (Test System: Ames Salmonella typhimurium, Strain/Indicator: TA100, Metabolic Activation: Rat, Liver, S-9, Aroclor 1254 (10%), Method: Preincubation): inactive; negative | mutagenic call (Test System: Ames Salmonella typhimurium, Strain/Indicator: TA100, Metabolic Activation: Rat, Liver, S-9, Aroclor 1254 (30%), Method: Preincubation): inactive; negative | mutagenic call (Test System: Ames Salmonella typhimurium, Strain/Indicator: TA1535, Metabolic Activation: Hamster, Liver, S-9, Aroclor 1254 (10%), Method: Preincubation): inactive; negative | mutagenic call (Test System: Ames Salmonella typhimurium, Strain/Indicator: TA1535, Metabolic Activation: Hamster, Liver, S-9, Aroclor 1254 (30%), Method: Preincubation): inactive; negative | mutagenic call (Test System: Ames Salmonella typhimurium, Strain/Indicator: TA1535, Metabolic Activation: None, Method: Preincubation): inactive; negative | mutagenic call (Test System: Ames Salmonella typhimurium, Strain/Indicator: TA1535, Metabolic Activation: Rat, Liver, S-9, Aroclor 1254 (10%), Method: Preincubation): inactive; negative | mutagenic call (Test System: Ames Salmonella typhimurium, Strain/Indicator: TA1535, Metabolic Activation: Rat, Liver, S-9, Aroclor 1254 (30%), Method: Preincubation): inactive; negative | mutagenic call (Test System: CHINESE HAMSTER V-79, Strain/Indicator: V-79/6-THIOGUANINE (HGPRT), Metabolic Activation: NONE, Method: PREINCUBATION): inactive; negative | mutagenic call (Test System: CHINESE HAMSTER V-79, Strain/Indicator: V-79/6-THIOGUANINE (HGPRT), Metabolic Activation: RAT, LIVER, S-9, Method: PREINCUBATION): inactive; negative | mutagenic call (Test System: E. coli, Strain/Indicator: WP2 IC185 trpE65, Metabolic Activation: None, Method: Plate incorporation (Test material solvent: ethanol)): inactive; negative | mutagenic call (Test System: E. coli, Strain/Indicator: WP2 IC202 trpE65 oxyR/pKM101, Metabolic Activation: None, Method: Plate incorporation (Test material solvent: ethanol)): inactive; negative

CCCCCCCCSCn1cc[n+](C)c1
mutagenic call [1]: inactive; negative | mutagenic call [2]: inactive; negative | mutagenic call [3]: inactive; negative | mutagenic call [4]: inactive; negative | mutagenic call [5]: inactive; negative | mutagenic call [6]: inactive; negative | mutagenic call [7]: inactive; negative | mutagenic call [8]: inactive; negative | mutagenic call [9]: inactive; negative | mutagenic call [10]: inactive; negative

O=c1ccc2cc3c4c(c2o1)CCCN4CCC3
mutagenic call [9]: inactive; negative | mutagenic call [10]: active; positive
